# Results as given in PubChem BioAssay (NCI).
#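 Grown in 96-well plates, cells were treated for 48 hours with each compound at five concentrations. Insufficient inhibition: endpoint recorded as highest concentration tested. The concentration for 50% growth inhibition is given as GI50. TGI: total growth inhibition.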
# Experiments:
# Assay in all cases: inhibition of tumour cell growth, NCI panel, 48 h
# [1] = test system: RXF 393 renal
# [2] = test system: SF-268 CNS
# [3] = test system: 786-0 renal
# [4] = test system: KM12 colon
# [5] = test system: SK-OV-3 ovarian
# [6] = test system: MCF7 breast
# [7] = test system: HCT-15 colon
# [8] = test system: HS 578T breast
# [9] = test system: MDA-MB-231 breast
# [10] = test system: SK-MEL-2 melanoma
# [11] = test system: RPMI-8226 leukemia
# [12] = test system: SR leukemia
# [13] = test system: MDA-MB-435
# [14] = test system: CAKI-1 renal
# [15] = test system: COLO 205 colon
# [16] = test system: NCI-H460 lung
# [17] = test system: OVCAR-3 ovarian
# [18] = test system: UACC-62 melanoma
# [19] = test system: T-47D breast
# [20] = test system: MALME-3M melanoma
# [21] = test system: HOP-62 NSCLC
# [22] = test system: SK-MEL-5 melanoma
# [23] = test system: HL-60(TB) leukemia
# [24] = test system: K-562 leukemia
# [25] = test system: A498 renal
# [26] = test system: SF-295 CNS
# [27] = test system: U251 CNS
# [28] = test system: ACHN renal
# [29] = test system: HOP-92 NSCLC
# [30] = test system: CCRF-CEM leukemia
# [31] = test system: UACC-257 melanoma
# [32] = test system: SNB-19 CNS
# [33] = test system: M14 melanoma
# [34] = test system: MOLT-4 leukemia
# [35] = test system: BT-549 breast
# [36] = test system: NCI-H522 lung
# [37] = test system: LOX IMVI melanoma
# [38] = test system: TK-10 renal
# [39] = test system: NCI-H226 lung
# [40] = test system: SW-620 colon
# [41] = test system: PC-3 prostate
# [42] = test system: DU-145 prostate
# [43] = test system: HT29 colon
# [44] = test system: HCC-2998 colon
# [45] = test system: NCI-H23 lung
# [46] = test system: UO-31 renal
# [47] = test system: OVCAR-8 ovarian
# [48] = test system: IGROV1 ovarian
# [49] = test system: SNB-75 CNS
# [50] = test system: HCT-116 colon
# [51] = test system: SF-539 CNS
# [52] = test system: SK-MEL-28 melanoma
# [53] = test system: SN12C renal
# [54] = test system: OVCAR-5 ovarian
# [55] = test system: NCI/ADR-RES ovarian
# [56] = test system: A549 NSCLC
# [57] = test system: OVCAR-4 ovarian
# [58] = test system: EKVX NSCLC
structure (smiles),measurement,setting,value
CC(C)CNc1nc(N=[N+]=[N-])nc(NCC(C)C)n1,GI50,[1],> 10 µM
same,TGI,[1],> 10 µM
same,GI50,[2],> 10 µM
same,TGI,[2],> 10 µM
same,GI50,[3],> 10 µM
same,TGI,[3],> 10 µM
same,GI50,[4],> 10 µM
same,TGI,[4],> 10 µM
same,GI50,[5],> 10 µM
same,TGI,[5],> 10 µM
same,GI50,[6],> 10 µM
same,TGI,[6],> 10 µM
same,GI50,[7],> 10 µM
same,TGI,[7],> 10 µM
same,GI50,[8],> 10 µM
same,TGI,[8],> 10 µM
same,GI50,[9],> 10 µM
same,TGI,[9],> 10 µM
same,GI50,[10],> 10 µM
same,TGI,[10],> 10 µM
same,GI50,[11],> 10 µM
same,TGI,[11],> 10 µM
same,GI50,[12],> 10 µM
same,TGI,[12],> 10 µM
same,GI50,[13],> 10 µM
same,TGI,[13],> 10 µM
same,GI50,[14],> 10 µM
same,TGI,[14],> 10 µM
same,GI50,[15],> 10 µM
same,TGI,[15],> 10 µM
same,GI50,[16],> 10 µM
same,TGI,[16],> 10 µM
same,GI50,[17],> 10 µM
same,TGI,[17],> 10 µM
same,GI50,[18],> 10 µM
same,TGI,[18],> 10 µM
same,GI50,[19],> 10 µM
same,TGI,[19],> 10 µM
same,GI50,[20],> 10 µM
same,TGI,[20],> 10 µM
same,GI50,[21],> 10 µM
same,TGI,[21],> 10 µM
same,GI50,[22],> 10 µM
same,TGI,[22],> 10 µM
same,GI50,[23],> 10 µM
same,TGI,[23],> 10 µM
same,GI50,[24],> 10 µM
same,TGI,[24],> 10 µM
same,GI50,[25],> 10 µM
same,TGI,[25],> 10 µM
same,GI50,[26],> 10 µM
same,TGI,[26],> 10 µM
same,GI50,[27],> 10 µM
same,TGI,[27],> 10 µM
same,GI50,[28],> 10 µM
same,TGI,[28],> 10 µM
same,GI50,[29],7.89 µM
same,TGI,[29],> 10 µM
same,GI50,[30],> 10 µM
same,TGI,[30],> 10 µM
same,GI50,[31],> 10 µM
same,TGI,[31],> 10 µM
same,GI50,[32],> 10 µM
same,TGI,[32],> 10 µM
same,GI50,[33],> 10 µM
same,TGI,[33],> 10 µM
same,GI50,[34],> 10 µM
same,TGI,[34],> 10 µM
same,GI50,[35],> 10 µM
same,TGI,[35],> 10 µM
same,GI50,[36],> 10 µM
same,TGI,[36],> 10 µM
same,GI50,[37],> 10 µM
same,TGI,[37],> 10 µM
same,GI50,[38],> 10 µM
same,TGI,[38],> 10 µM
same,GI50,[39],> 10 µM
same,TGI,[39],> 10 µM
same,GI50,[40],> 10 µM
same,TGI,[40],> 10 µM
same,GI50,[41],> 10 µM
same,TGI,[41],> 10 µM
same,GI50,[42],> 10 µM
same,TGI,[42],> 10 µM
same,GI50,[43],> 10 µM
same,TGI,[43],> 10 µM
same,GI50,[44],> 10 µM
same,TGI,[44],> 10 µM
same,GI50,[45],> 10 µM
same,TGI,[45],> 10 µM
same,GI50,[46],> 10 µM
same,TGI,[46],> 10 µM
same,GI50,[47],> 10 µM
same,TGI,[47],> 10 µM
same,GI50,[48],> 10 µM
same,TGI,[48],> 10 µM
same,GI50,[49],> 10 µM
same,TGI,[49],> 10 µM
same,GI50,[50],> 10 µM
same,TGI,[50],> 10 µM
same,GI50,[51],> 10 µM
same,TGI,[51],> 10 µM
same,GI50,[52],> 10 µM
same,TGI,[52],> 10 µM
same,GI50,[53],> 10 µM
same,TGI,[53],> 10 µM
same,GI50,[54],> 10 µM
same,TGI,[54],> 10 µM
same,GI50,[55],> 10 µM
same,TGI,[55],> 10 µM
same,GI50,[56],> 10 µM
same,TGI,[56],> 10 µM
same,GI50,[57],> 10 µM
same,TGI,[57],> 10 µM
CN(NC(=O)CC(=O)NN(C)C(=S)c1ccc(Cl)cc1)C(=S)c1ccc(Cl)cc1,GI50,[1],14.7 µM
same,TGI,[1],65.4 µM
same,GI50,[2],19.6 µM
same,TGI,[2],> 100 µM
same,GI50,[3],24.6 µM
same,TGI,[3],> 100 µM
same,GI50,[4],16.9 µM
same,TGI,[4],66.4 µM
same,GI50,[5],34.7 µM
same,TGI,[5],83.8 µM
same,GI50,[6],18 µM
same,TGI,[6],> 100 µM
same,GI50,[7],7.72 µM
same,TGI,[7],> 100 µM
same,GI50,[8],17.7 µM
same,TGI,[8],48.7 µM
same,GI50,[9],19.8 µM
same,TGI,[9],65.2 µM
same,GI50,[10],22.7 µM
same,TGI,[10],81.8 µM
same,GI50,[11],12.6 µM
same,TGI,[11],> 100 µM
same,GI50,[13],24.4 µM
same,TGI,[13],> 100 µM
same,GI50,[14],13.6 µM
same,TGI,[14],> 100 µM
same,GI50,[15],23 µM
same,TGI,[15],48.5 µM
same,GI50,[16],4.38 µM
same,TGI,[16],63.7 µM
same,GI50,[17],13 µM
same,TGI,[17],46.4 µM
same,GI50,[18],11.2 µM
same,TGI,[18],30.2 µM
same,GI50,[19],21.8 µM
same,TGI,[19],> 100 µM
same,GI50,[20],13.2 µM
same,TGI,[20],52 µM
same,GI50,[21],20.5 µM
same,TGI,[21],70.8 µM
same,GI50,[22],15.4 µM
same,TGI,[22],46 µM
same,GI50,[23],25.1 µM
same,TGI,[23],71.7 µM
same,GI50,[24],16.4 µM
same,TGI,[24],> 100 µM
same,GI50,[26],3.14 µM
same,TGI,[26],19.4 µM
same,GI50,[27],21.3 µM
same,TGI,[27],> 100 µM
same,GI50,[28],18.1 µM
same,TGI,[28],85.8 µM
same,TGI,[29],9.05 µM
same,GI50,[30],7.94 µM
same,TGI,[30],> 100 µM
same,GI50,[32],23.1 µM
same,TGI,[32],> 100 µM
same,GI50,[33],14.1 µM
same,TGI,[33],59.3 µM
same,GI50,[34],17.6 µM
same,TGI,[34],> 100 µM
same,GI50,[35],12.9 µM
same,TGI,[35],53 µM
same,GI50,[36],19.1 µM
same,TGI,[36],60.2 µM
same,GI50,[37],20.2 µM
same,TGI,[37],> 100 µM
same,GI50,[38],23 µM
same,TGI,[38],> 100 µM
same,GI50,[39],13.2 µM
same,TGI,[39],45.3 µM
same,GI50,[40],29.3 µM
same,TGI,[40],> 100 µM
same,GI50,[41],10.7 µM
same,TGI,[41],56.5 µM
same,GI50,[42],21.9 µM
same,TGI,[42],> 100 µM
same,GI50,[43],23.6 µM
same,TGI,[43],> 100 µM
same,GI50,[45],12.1 µM
same,TGI,[45],46.2 µM
same,GI50,[46],10.4 µM
same,TGI,[46],> 100 µM
same,GI50,[47],23.7 µM
same,TGI,[47],> 100 µM
same,GI50,[48],19.8 µM
same,TGI,[48],> 100 µM
same,GI50,[49],22.5 µM
same,TGI,[49],> 100 µM
same,GI50,[50],10.7 µM
same,TGI,[50],> 100 µM
same,GI50,[51],27.6 µM
same,TGI,[51],> 100 µM
same,GI50,[52],15 µM
same,TGI,[52],54.5 µM
same,GI50,[53],18.6 µM
same,TGI,[53],> 100 µM
same,GI50,[54],25.9 µM
same,TGI,[54],> 100 µM
same,GI50,[58],18.8 µM
same,TGI,[58],> 100 µM
same,GI50,[55],13.6 µM
same,TGI,[55],63.7 µM
same,GI50,[56],3.86 µM
same,TGI,[56],71.7 µM
same,GI50,[57],19.6 µM
same,TGI,[57],> 100 µM
